Measured values reported in US20250034169A1, “NOVEL PYRIMIDOPYRIDINE COMPOUND, PHARMACEUTICAL COMPOSITION THEREOF, AND USE THEREOF” (SUNSHINE LAKE PHARMA CO., LTD., priority 2021, published 2025).
pIC50: −log10 of the molar value. Like-named read-outs stand apart in the source and are kept apart here.

What was measured:
[1] = Stability in human liver microsomes; assay type: in vitro ADME
Protocol: (§1) Objective: To evaluate the stability of the compounds of the present invention in human and mouse liver microsomes by LC-MS/MS.
(§2) The ratio of the sample peak area to the internal standard peak area was obtained by LC/MS/MS, and the content of the compounds at 0 min was regarded as 100%, and the relative content of the compounds at each time point was calculated. The half-life of the compound was calculated by plotting the “relative content of the compound” against the “incubation time”, and the intrinsic clearance was calculated, in which the half-life and intrinsic clearance of the compound in human and mouse liver microsomes were determined in Table 3 and Table 4, respectively.

intracellular pERK = test: Inhibitory effect on intracellular pERK, In-Cell Western, AGS cells; assay type: cell-based; settings: Homo sapiens, read-out: Inhibitory effect on intracellular pERK, IC50
[2] = Stability in mouse liver microsomes; assay type: in vitro ADME
Protocol: as §1, §2

in vivo = test: in vivo; set-up: species or system BALB/c mice; settings: BALB/c, mouse, 2 mg/kg
Protocol: The inventors performed a pharmacokinetic evaluation of the compounds of the present invention in mice.
The compound of the present invention was in the form of a solution of 5% DMSO+30% PEG400+65% Saline, 10% DMSO+10% Kolliphor HS15+80% Saline, 10% DMSO+89%(25% SBE-B-CD)+(2% HCl), 20% PEG400+80% sterilize water for injection or 10% DMA+10% HS15+30% PEG400+50% sterilize water for injection, the test animals were administered, and the animals were fasted for 12 h before administration, and water was free to drink. The test animals were administered intravenously at a dose of 2 mg/kg, blood (approximately 0.15 mL) was taken intravenously at the following time points after administration: 0.083 h, 0.25 h, 0.5 h, 1.0 h, 2.0 h, 5.0 h, 7.0 h, and 24 h, EDTA-K2 was pre-added as an anticoagulant in the blood collection tube, the blood samples were centrifuged at 12,000 rpm for 2 min, then plasma was collected and stored at −20° C. or −70° C.
The plasma samples collected above were treated (after the frozen plasma thawed at room temperature, vortexed for 15 s for mixing, 10-20 μL of plasma was taken and added with 120-150 μL of acetonitrile solution containing internal standard, the mixture was vortexed for 5 min for mixing, then centrifuged at 4,000 rpm for 5 min, 100 μL of supernatant was taken, and 120-150 μL of methanol/water (v/v=1/1) was added to mix), and the compound concentration in plasma was analyzed by LC-MS/MS. The pharmacokinetic parameters of the compounds of the present invention for intravenous administration in mice are shown in Table 5.

KRAS G12D-GTP & cRAF = KRAS G12D-GTP & cRAF (Homo sapiens (Human), UniProt P01116, G12D); test: KRAS G12D/cRAF binding experiment (HTRF); settings: competitive binding
KRAS G12D-GTP & SOS1 = KRAS G12D-GTP & SOS1 (Homo sapiens (Human), UniProt P01116, G12D); test: KRAS G12D/SOS1 binding experiment (HTRF); settings: competitive binding
[3] = human liver microsomes, 1 μM, slow ER < 0.3, moderate 0.3 < ER < 0.7, fast ER > 0.7
[4] = pH 7.4, human liver microsomes 0.5 mg/mL, 1 μM, 37° C., read-out: CLint
[5] = pH 7.4, human liver microsomes 0.5 mg/mL, 1 μM, 37° C., read-out: T1/2
[6] = mouse liver microsomes, 1 μM, slow ER < 0.3, moderate 0.3 < ER < 0.7, fast ER > 0.7
[7] = pH 7.4, mouse liver microsomes 0.5 mg/mL, 1 μM, 37° C., read-out: CLint
[8] = pH 7.4, mouse liver microsomes 0.5 mg/mL, 1 μM, 37° C., read-out: T1/2
[9] = AGS cells, 3 h incubation, In-Cell Western

KRAS G12D-GTP & cRAF, sequence (P01116-2 other isoform, or with tags, fused parts or gaps G12D): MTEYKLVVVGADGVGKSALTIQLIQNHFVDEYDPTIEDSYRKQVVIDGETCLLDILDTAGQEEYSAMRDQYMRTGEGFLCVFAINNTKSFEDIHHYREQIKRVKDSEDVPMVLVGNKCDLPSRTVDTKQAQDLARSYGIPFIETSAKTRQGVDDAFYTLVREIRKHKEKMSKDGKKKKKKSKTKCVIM
KRAS G12D-GTP & SOS1, sequence (P01116-2 other isoform, or with tags, fused parts or gaps G12D): as above

C#Cc1c(F)ccc2cc(O)cc(-c3nc(C#C)c4c(N5CC6CCC(C5)N6)nc(OC[C@@]56CCCN5C[C@H](F)C6)nc4c3F)c12 [Compound 23]
CLHep ([1]; human liver microsomes, 1 μM): 23.0 mL/min/kg
predicted in vivo clearance ([1]; human liver microsomes, 1 μM): 10.9 mL/min/kg
ER [1, 3]: 0.53
microsomal CLint at 1 μM [1, 4]: 18.4 µL/min/mg
half-life at 1 μM [1, 5]: 75.3 min
pIC50 (intracellular pERK; AGS, 3 h): 9.22
CLHep ([2]; mouse liver microsomes, 1 μM): 187.4 mL/min/kg
CLin vivo ([2]; mouse liver microsomes, 1 μM): 60.8 mL/min/kg
ER [2, 6]: 0.68
microsomal CLint at 1 μM [2, 7]: 47.6 µL/min/mg
half-life at 1 μM [2, 8]: 29.1 min
AUC(0-inf) (in vivo; mice, intravenous, read-out: AUCINF): 2160 ng·h/mL
AUC(0-t) (in vivo; mice, intravenous, read-out: AUClast): 2140 ng·h/mL
clearance (in vivo; mice, intravenous, read-out: Cl): 16 mL/min/kg
Cmax (in vivo; mice, intravenous, read-out: Cmax): 3550 ng/mL
MRT last (in vivo; mice, intravenous, read-out: MRTlast): 42 min
half-life (in vivo; mice, intravenous, read-out: T1/2 (converted)): 50.4 min
Tmax (in vivo; mice, intravenous, read-out: Tmax): 4.98 min
Vd (in vivo; mice, intravenous, read-out: Vss): 0.69 L/kg

C#Cc1c(F)ccc2cc(O)cc(-c3nc(C#CCC)c4c(N5CC6CCC(C5)N6)nc(OC[C@@]56CCCN5C[C@H](F)C6)nc4c3F)c12 [Compound 24]
pIC50 (intracellular pERK; AGS, 3 h): 9.70
pIC50 (KRAS G12D-GTP & cRAF): 7.87
pIC50 (KRAS G12D-GTP & SOS1): 7.82

C#Cc1c(F)ccc2cc(O)cc(-c3nc(C#CCOC)c4c(N5CC6CCC(C5)N6)nc(OC[C@@]56CCCN5C[C@H](F)C6)nc4c3F)c12 [Compound 25]
pIC50 (intracellular pERK; AGS, 3 h): 9.10
pIC50 (KRAS G12D-GTP & cRAF): 7.82
pIC50 (KRAS G12D-GTP & SOS1): 7.77

C#Cc1c(F)ccc2cc(O)cc(-c3nc(C#CCC(C)C)c4c(N5CC6CCC(C5)N6)nc(OC[C@@]56CCCN5C[C@H](F)C6)nc4c3F)c12 [Compound 29]
pIC50 (intracellular pERK; [9]): 9.00
pIC50 (KRAS G12D-GTP & cRAF): 7.83
pIC50 (KRAS G12D-GTP & SOS1): 7.80

C#Cc1c(F)ccc2cc(O)cc(-c3nc(C#CCCC(C)C)c4c(N5CC6CCC(C5)N6)nc(OC[C@@]56CCCN5C[C@H](F)C6)nc4c3F)c12 [Compound 30]
pIC50 (intracellular pERK; [9]): 9.10
pIC50 (KRAS G12D-GTP & cRAF): 8.06
pIC50 (KRAS G12D-GTP & SOS1): 7.87

C#Cc1c(F)ccc2cc(O)cc(-c3nc(C#CCCCC)c4c(N5CC6CCC(C5)N6)nc(OC[C@@]56CCCN5C[C@H](F)C6)nc4c3F)c12 [Compound 39]
CLHep ([1]; human, 1 μM, pH 7.4): 19.0 mL/min/kg
ER ([1]; human, 1 μM, pH 7.4): 0.48
half-life at 1 μM ([1]; human, microsomes, pH 7.4): 91.1 min
microsomal CLint at 1 μM ([1]; human, microsomes, pH 7.4): 15.2 µL/min/mg
pIC50 (intracellular pERK; [9]): 9.30
CLHep ([2]; mouse, 1 μM, pH 7.4): 53.4 mL/min/kg
CLin vivo ([2]; mouse, 1 μM, pH 7.4): 33.5 mL/min/kg
ER ([2]; mouse, 1 μM, pH 7.4): 0.37
half-life at 1 μM ([2]; mouse, microsomes, pH 7.4): 102 min
microsomal CLint at 1 μM ([2]; mouse, microsomes, pH 7.4): 13.5 µL/min/mg

C#Cc1c(F)ccc2cc(O)cc(-c3nc(C#C)c4c(N5CC6CCC(C5)N6)nc(OC[C@@H]5CCCN5C)nc4c3F)c12 [Compound 51]
pIC50 (intracellular pERK; [9]): 8.92
pIC50 (KRAS G12D-GTP & cRAF): 7.95
pIC50 (KRAS G12D-GTP & SOS1): 7.68

C#Cc1c(F)ccc2cc(O)cc(-c3nc(C#C)c4c(N5CC6CCC(C5)N6)nc(OCC5(CN(C)C)CC5)nc4c3F)c12 [Compound 52]
pIC50 (intracellular pERK; [9]): 8.82
pIC50 (KRAS G12D-GTP & cRAF): 8.11
pIC50 (KRAS G12D-GTP & SOS1): 7.82

C#Cc1c(F)ccc2cc(O)cc(-c3nc(C#C)c4c(N5CC6CCC(C5)N6)nc(OCC5(CN6CCOCC6)CC5)nc4c3F)c12 [Compound 53]
pIC50 (intracellular pERK; [9]): 9.40
pIC50 (KRAS G12D-GTP & cRAF): 8.37
pIC50 (KRAS G12D-GTP & SOS1): 7.84

C#Cc1nc(-c2cc(O)cc3ccc(F)c(CC)c23)c(F)c2nc(OC[C@@]34CCCN3C[C@H](F)C4)nc(N3CC4CCC(C3)N4)c12 [Compound 65]
pIC50 (intracellular pERK; AGS, 3 h): 9.40
pIC50 (KRAS G12D-GTP & cRAF): 8.00
pIC50 (KRAS G12D-GTP & SOS1): 7.73

C#Cc1nc(-c2cc(O)cc3cccc(Cl)c23)c(F)c2nc(OC[C@@]34CCCN3C[C@H](F)C4)nc(N3CC4CCC(C3)N4)c12 [Compound 67]
CLHep ([1]; human liver microsomes, 1 μM): 14.5 mL/min/kg
predicted in vivo clearance ([1]; human liver microsomes, 1 μM): 8.5 mL/min/kg
ER [1, 3]: 0.41
microsomal CLint at 1 μM [1, 4]: 11.6 µL/min/mg
half-life at 1 μM [1, 5]: 119 min
pIC50 (intracellular pERK; [9]): 9.40
pIC50 (KRAS G12D-GTP & cRAF): 8.27
CLHep ([2]; mouse liver microsomes, 1 μM): 178.5 mL/min/kg
CLin vivo ([2]; mouse liver microsomes, 1 μM): 59.8 mL/min/kg
ER [2, 6]: 0.66
microsomal CLint at 1 μM [2, 7]: 45.3 µL/min/mg
half-life at 1 μM [2, 8]: 30.6 min
AUC(0-inf) (in vivo; iv): 3230 ng·h/mL
AUC(0-t) (in vivo; iv): 3210 ng·h/mL
Cmax (in vivo; iv): 4300 ng/mL
MRT last (in vivo; iv): 45 min
Tmax (in vivo; iv): 4.98 min
Vd (in vivo; iv): 0.5 L/kg
clearance (in vivo; iv): 10 mL/min/kg
half-life (in vivo; iv): 52.2 min
pIC50 (KRAS G12D-GTP & SOS1): 7.87

C#Cc1nc(-c2cc(O)cc3cccc(F)c23)c(F)c2nc(OC[C@@]34CCCN3C[C@H](F)C4)nc(N3CC4CCC(C3)N4)c12 [Compound 68]
pIC50 (intracellular pERK; [9]): 9.10
pIC50 (KRAS G12D-GTP & cRAF): 8.19
pIC50 (KRAS G12D-GTP & SOS1): 7.78
